Assay results taken from patent US8426447B2, “Spiro-tricyclic ring compounds as beta-secretase modulators and methods of use” (Amgen Inc., priority 2008, dated 2013).

How the values were obtained:
BACE1 [1] = target: T1, BACE1 (Homo sapiens, UniProt P56817); experiment: In Vitro Enzymatic BACE FRET (Fluorescence Resonance Energy Transfer) Assay; type: biochemical; settings: read-out: BACE1 FRET assay
Summary of the method: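 Fluorescence read-out after Tris addition raises pH to neutrality and ends the reaction. Before that, a peptide substrate carrying fluorophore and quencher across the BACE cleavage site (50 nM) is incubated with enzyme for one hour at pH 4.2 in acetate containing 10% DMSO and sub-micellar genapol.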

BACE1 [2] = target: T1, BACE1; experiment: In Vitro BACE Cell-based Assay (HEK cell assay): Aβ40 in conditioned medium of cells stably expressing Amyloid Precursor Protein, sandwich ELISA; settings: read-out: HEK cell assay
Summary of the method: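 Conditioned medium Aβ40 by ELISA: pAb40 capture 3 h 4° C., biotin-6E10 detection 2 h 4° C., Streptavidin-Europium TRF. IC50 fitted from % control.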

[3] = in vitro BACE FRET enzyme assay, IC50 class symbols
[4] = HEK cell-based assay, Aβ40 in conditioned medium, IC50 class symbols
[5] = Table II, Aβ40, 24 h incubation

T1 sequence (P56817 46-501, species assumed): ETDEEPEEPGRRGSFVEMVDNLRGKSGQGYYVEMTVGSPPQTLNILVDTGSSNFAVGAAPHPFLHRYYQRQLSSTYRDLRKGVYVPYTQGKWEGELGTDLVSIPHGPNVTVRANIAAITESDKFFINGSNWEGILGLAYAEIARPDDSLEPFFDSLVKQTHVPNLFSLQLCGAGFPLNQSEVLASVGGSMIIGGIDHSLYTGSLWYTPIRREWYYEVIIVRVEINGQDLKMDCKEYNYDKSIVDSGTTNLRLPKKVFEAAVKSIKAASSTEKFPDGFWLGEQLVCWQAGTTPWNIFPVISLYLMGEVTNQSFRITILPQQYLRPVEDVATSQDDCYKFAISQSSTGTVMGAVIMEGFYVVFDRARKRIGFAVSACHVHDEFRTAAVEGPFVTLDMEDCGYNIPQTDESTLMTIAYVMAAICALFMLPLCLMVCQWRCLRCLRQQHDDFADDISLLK

## COc1ccc2c(c1)[C@@]1(COC(N)=N1)c1cc(Br)cc(F)c1O2 [compound 406]
BACE1 [1]; [3]
  IC50: > 5 µM
BACE1 [2]; [4]
  IC50: > 5 µM

## CC(C)(C)COc1ccc2c(c1)[C@@]1(COC(N)=N1)c1cc(-c3cncnc3)cc(F)c1O2 [155a]
BACE1 [1]; Table III, IC50's in uM ranges
  IC50: < 0.1 µM
BACE1 [2]; Table III, IC50's in uM ranges
  IC50: 0.1 to 1 µM

## CC(C)(F)COc1ccc2c(c1)[C@]1(COC(N)=N1)c1cc(-c3cncnc3)cnc1O2 [compound 176]
BACE1 [1]; Table III, IC50's in uM ranges
  IC50: < 0.1 µM
BACE1 [2]; Table III, IC50's in uM ranges
  IC50: 0.1 to 1 µM

## NC1=N[C@@]2(CO1)c1cc(-c3cccnc3)ccc1Oc1ccc(N3CCOCC3)nc12 [compound 334]
BACE1 [1]; [3]
  IC50: 0.1 to 1 µM
BACE1 [2]; [4]
  IC50: 0.1 to 1 µM

## NC1=N[C@]2(CO1)c1cc(OCC3CCOC3)ccc1Oc1ccc(-c3cncnc3)cc12 (stereo partly drawn) [Example 132, (S)-2′-(pyrimidin-5-yl)-7′-((tetrahydrofuran-3-yl)methoxy)-5H-spiro[oxazole-4,9′-xanthen]-2-amine]
BACE1 [1]; Table III, IC50's in uM ranges
  IC50: 1 to 5 µM
BACE1 [2]; Table III, IC50's in uM ranges
  IC50: > 5 µM

## CC(C)(C)C#Cc1cnc2c(c1)[C@@]1(COC(N)=N1)c1cc(-c3cccnc3)ccc1O2 [185a]
BACE1 [1]; Table III, IC50's in uM ranges
  IC50: 0.1 to 1 µM
BACE1 [2]; Table III, IC50's in uM ranges
  IC50: 1 to 5 µM

## NC1=N[C@]2(CO1)c1cc(C3=CCOCC3)ccc1Oc1ccc(C3CC3)cc12 [compound 756]
BACE1 [1]
  IC50: 0.1 to 1 µM
BACE1 [2]
  IC50: 1 to 5 µM

## Cc1cncc(-c2ccc3c(c2)[C@@]2(COC(N)=N2)c2cc(C4=CCOCC4)ncc2O3)c1 [compound 326]
BACE1 [1]; [3]
  IC50: < 0.1 µM
BACE1 [2]; [4]
  IC50: < 0.1 µM

## CCOC(C)(C)COc1ccc2c(c1)[C@]1(COC(N)=N1)c1cc(-c3cccnc3)ccc1O2 [compound 172]
BACE1 [1]; Table III, IC50's in uM ranges
  IC50: < 0.1 µM
BACE1 [2]; Table III, IC50's in uM ranges
  IC50: < 0.1 µM

## CC(C)(C)COc1ccc2c(c1)[C@@]1(COC(N)=N1)c1ccccc1O2 [compound 665]
BACE1 [1]
  IC50: 0.1 to 1 µM
BACE1 [2]
  IC50: 1 to 5 µM

## NC1=N[C@@]2(CO1)c1cc(-c3cncnc3)ccc1Oc1c(F)cc(OCC3CCOCC3)cc12 [compound 417]
BACE1 [1]; [3]
  IC50: < 0.1 µM
BACE1 [2]; [4]
  IC50: < 0.1 µM

## COCC#Cc1ccc2c(c1)[C@@]1(COC(N)=N1)c1cc(-c3cncnc3)ccc1O2 [156b]
BACE1 [1]; Table III, IC50's in uM ranges
  IC50: 0.1 to 1 µM
BACE1 [2]; Table III, IC50's in uM ranges
  IC50: 0.1 to 1 µM

## CC(C)(C#N)COc1ccc2c(c1)[C@]1(COC(N)=N1)c1cc(-c3cccnc3)cnc1O2 [compound 168]
BACE1 [1]; Table III, IC50's in uM ranges
  IC50: < 0.1 µM
BACE1 [2]; Table III, IC50's in uM ranges
  IC50: < 0.1 µM

## NC1=N[C@@]2(CO1)c1cc(-c3cccnc3)ccc1Oc1cnc(-c3cccnc3)cc12 [compound 902]
BACE1 [1]; Table IV, class symbols
  IC50: < 0.1 µM
BACE1 [2]; Table IV, class symbols
  IC50: < 0.1 µM

## NC1=N[C@]2(CO1)c1cc(/C=C/C(=O)O)ccc1Oc1ccc(-c3cncnc3)cc12 [compound 948]
BACE1 [1]
  IC50: 0.1 to 1 µM
BACE1 [2]
  IC50: > 5 µM

## Cc1cncc(-c2ccc3c(c2)[C@@]2(COC(N)=N2)c2cc(OCC(C)(C)O)ccc2O3)c1 [compound 223]
BACE1 [1]; Table III, IC50's in uM ranges
  IC50: < 0.1 µM
BACE1 [2]; Table III, IC50's in uM ranges
  IC50: < 0.1 µM

## CC(C)(F)COc1cnc2c(c1)[C@]1(COC(N)=N1)c1cc(C#CC3CC3)ccc1O2 [compound 382]
BACE1 [1]; [3]
  IC50: < 0.1 µM
BACE1 [2]; [4]
  IC50: < 0.1 µM

## NC1=N[C@@]2(CO1)c1cc(-c3cncnc3)ccc1Oc1ccc(-c3cccc(O)c3)cc12 [compound 891]
BACE1 [1]; Table IV, class symbols
  IC50: < 0.1 µM
BACE1 [2]; Table IV, class symbols
  IC50: 0.1 to 1 µM

## Cc1ccc(-c2ccc3c(c2)[C@@]2(COC(N)=N2)c2cc(OCC(C)(C)C)ccc2O3)cn1 [Example 80, (4S)-2′-(2,2-dimethylpropoxy)-7′-(6-methyl-3-pyridinyl)spiro[1,3-oxazole-4,9′-xanthen]-2-amine]
BACE1 [1]; Table II
  IC50: 0.1 to 1 µM
BACE1 [2]; [5]
  IC50: 1 to 5 µM

## CCOC(C)(C)COc1ccc2c(c1)[C@]1(COC(N)=N1)c1cc(-c3cncnc3)ccc1O2 [compound 170]
BACE1 [1]; Table III, IC50's in uM ranges
  IC50: < 0.1 µM
BACE1 [2]; Table III, IC50's in uM ranges
  IC50: < 0.1 µM

## CC1(COc2cnc3c(c2)[C@]2(COC(N)=N2)c2cc(-c4ccccc4F)ccc2O3)COC1 [compound 458]
BACE1 [1]
  IC50: < 0.1 µM
BACE1 [2]; HEK cells
  IC50: < 0.1 µM

## NC1=N[C@@]2(CO1)c1cc(-c3cccc(Cl)c3)ccc1Oc1cnc(C3=CCOCC3)cc12 [compound 427, (5S)-7-(3-chlorophenyl)-3-(3,6-dihydro-2H-pyran-4-yl)spiro[chromeno[2,3-c]pyridine-5,4′-[1,3]oxazol]-2′-amine]
BACE1 [1]
  IC50: < 0.1 µM
BACE1 [2]; HEK cells
  IC50: < 0.1 µM

## CC(C)(C)CNc1cc2c(cn1)Oc1ccc(-c3cccnc3)cc1[C@@]21COC(N)=N1 [compound 440]
BACE1 [1]
  IC50: < 0.1 µM
BACE1 [2]; HEK cells
  IC50: < 0.1 µM

## CC(C)(C)COc1ccc2c(c1)[C@]1(COC(N)=N1)c1cc(C#CC3CC3)cnc1O2 [compound 45]
BACE1 [1]; Table II
  IC50: < 0.1 µM
BACE1 [2]; [5]
  IC50: 0.1 to 1 µM

## Cc1c(OCC(C)(C)O)ccc2c1[C@]1(COC(N)=N1)c1cc(-c3cccnc3)ccc1O2 [compound 907]
BACE1 [1]; Table IV, class symbols
  IC50: < 0.1 µM
BACE1 [2]; Table IV, class symbols
  IC50: < 0.1 µM

## CC(C)(C)OC(=O)N1CC=C(c2ccc3c(c2)[C@]2(COC(N)=N2)c2cc(-c4cncnc4)ccc2O3)CC1 [compound 968]
BACE1 [1]
  IC50: < 0.1 µM
BACE1 [2]
  IC50: 0.1 to 1 µM

## CC(C)(C)COc1ccc2c(c1)[C@]1(COC(N)=N1)c1cc(C(=O)NC3CCCC3)ccc1O2 [compound 874]
BACE1 [1]; Table IV, class symbols
  IC50: 0.1 to 1 µM
BACE1 [2]; Table IV, class symbols
  IC50: 1 to 5 µM

## NC1=N[C@@]2(CO1)c1cc(-c3cccnc3F)ccc1Oc1cnc(-c3cccnc3F)cc12 [compound 550]
BACE1 [1]; Table IV, class symbols
  IC50: < 0.1 µM
BACE1 [2]; Table IV, class symbols
  IC50: 0.1 to 1 µM

## NC1=N[C@@]2(CO1)c1cc(Br)ccc1Oc1ccc(C#CC3(O)CCC3)cc12 [compound 957]
BACE1 [1]
  IC50: 1 to 5 µM
BACE1 [2]
  IC50: > 5 µM

## COC(=O)/C=C/c1ccc2c(c1)[C@]1(COC(N)=N1)c1cc(-c3cccnc3)ccc1O2 [compound 947]
BACE1 [1]
  IC50: 0.1 to 1 µM
BACE1 [2]
  IC50: 0.1 to 1 µM

## Cc1cscc1-c1ccc2c(c1)[C@@]1(COC(N)=N1)c1cc(OCC(C)(C)C)ccc1O2 [compound 738]
BACE1 [1]
  IC50: 0.1 to 1 µM
BACE1 [2]
  IC50: 1 to 5 µM

## N#Cc1ccc(-n2ccc3c(c2=O)[C@@]2(COC(N)=N2)c2cc(-c4cccnc4)ccc2O3)cc1 [compound 523]
BACE1 [1]
  IC50: 1 to 5 µM
BACE1 [2]; HEK cells
  IC50: 1 to 5 µM

## CC(C)(C)COc1ccc2c(c1)[C@]1(COC(N)=N1)c1cc(-c3cnccn3)ccc1O2 [Example 131, (S)-2′-(neopentyloxy)-7′-(pyrazin-2-yl)-5H-spiro[oxazole-4,9′-xanthen]-2-amine]
BACE1 [1]; Table III, IC50's in uM ranges
  IC50: < 0.1 µM
BACE1 [2]; Table III, IC50's in uM ranges
  IC50: < 0.1 µM

## CC(C)(C)COc1ccc2c(c1)[C@]1(COC(N)=N1)c1cc(C(=O)N3CCC3)ccc1O2 [compound 608]
BACE1 [1]; Table IV, class symbols
  IC50: 0.1 to 1 µM
BACE1 [2]; Table IV, class symbols
  IC50: 0.1 to 1 µM

## NC1=N[C@]2(CO1)c1cc(Br)ccc1Oc1ccc(-c3cncnc3)cc12 [compound 686]
BACE1 [1]
  IC50: 0.1 to 1 µM
BACE1 [2]
  IC50: 0.1 to 1 µM

## CC(C)(C)C[C@@H](F)c1ccc2c(c1)[C@]1(COC(N)=N1)c1cc(-c3cncnc3)ccc1O2 [116b, (4S)-2′-((1R)-1-fluoro-3,3-dimethylbutyl)-7′-(5-pyrimidinyl)spiro[1,3-oxazole-4,9′-xanthen]-2-amine]
BACE1 [1]; Table III, IC50's in uM ranges
  IC50: < 0.1 µM
BACE1 [2]; Table III, IC50's in uM ranges
  IC50: 0.1 to 1 µM

## NC1=N[C@@]2(CO1)c1cc(-c3cccnc3F)ccc1Oc1ccc([C@H]3CCCCO3)cc12 [compound 365]
BACE1 [1]; [3]
  IC50: < 0.1 µM
BACE1 [2]; [4]
  IC50: < 0.1 µM

## NC1=N[C@]2(CO1)c1cc(-c3cccnc3)ccc1Oc1ncccc12 [compound 635]
BACE1 [1]; Table IV, class symbols
  IC50: 0.1 to 1 µM
BACE1 [2]; Table IV, class symbols
  IC50: 0.1 to 1 µM

## NC1=N[C@@]2(CO1)c1ccccc1Oc1ccc(-c3cncnc3)cc12 [compound 844]
BACE1 [1]; Table IV, class symbols
  IC50: 0.1 to 1 µM
BACE1 [2]; Table IV, class symbols
  IC50: 0.1 to 1 µM

## CC(C)(C)COc1ccc2c(c1)[C@]1(COC(N)=N1)c1cc(-c3ccsc3)ccc1O2 [compound 833]
BACE1 [1]; Table IV, class symbols
  IC50: < 0.1 µM
BACE1 [2]; Table IV, class symbols
  IC50: 1 to 5 µM

## NC1=N[C@@]2(CO1)c1ccccc1Oc1ccc(-c3cc(F)cnc3Cl)cc12 [compound 619]
BACE1 [1]; Table IV, class symbols
  IC50: 1 to 5 µM
BACE1 [2]; Table IV, class symbols
  IC50: 0.1 to 1 µM

## C[C@H]1OC(N)=N[C@@]12c1cc(OCC(C)(C)C)ccc1Oc1ccc(-c3cncnc3)cc12 [126d]
BACE1 [1]; Table III, IC50's in uM ranges
  IC50: < 0.1 µM
BACE1 [2]; Table III, IC50's in uM ranges
  IC50: < 0.1 µM

## NC1=N[C@@]2(CO1)c1cc(-c3cccnc3)ccc1Oc1ccc(-c3cccnc3)nc12 [compound 989]
BACE1 [1]
  IC50: 0.1 to 1 µM
BACE1 [2]
  IC50: 0.1 to 1 µM

## Cc1ccc(-c2cnc3c(c2)[C@]2(COC(N)=N2)c2cc(-c4cncnc4)ccc2O3)cc1 [compound 578]
BACE1 [1]; Table IV, class symbols
  IC50: < 0.1 µM
BACE1 [2]; Table IV, class symbols
  IC50: < 0.1 µM

## CC(C)(C)COc1ccc2c(c1)[C@]1(COC(N)=N1)c1cc(N3CCCCC3)ccc1O2 [compound 813]
BACE1 [1]; Table IV, class symbols
  IC50: 0.1 to 1 µM
BACE1 [2]; Table IV, class symbols
  IC50: 0.1 to 1 µM

## CC(C)(C)CCOc1ccc2c(c1)[C@]1(COC(N)=N1)c1cc(-c3cncnc3)ccc1O2 [Example 70, (4S)-2′-(3,3-dimethylbutoxy)-7′-(5-pyrimidinyl)spiro[1,3-oxazole-4,9′-xanthen]-2-amine]
BACE1 [1]; Table II
  IC50: < 0.1 µM
BACE1 [2]; [5]
  IC50: 0.1 to 1 µM
